# Reference: patent publication US20070167492A1, “Molluscicidal agents” (priority 2003, published 2007)
# Tested on: Deroceras reticulatum (grey field slug)
# Assay: Example 1: pot test, treated winter wheat seed with 5 adult slugs per pot, 14 days
# Type: in vivo
# Procedure, shortened: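 Fludioxonil-disinfected winter wheat seed (Kampa, 40 per pot) sown on quartz sand over potting soil with 5 adult slugs per pot; ±15° C., ±90% RH, 12 h light/12 h dark, 4 replicates. Damaged seeds, plants, dead slugs and fecal pellets counted up to day 14; F-tests and Student-tests.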
# [1] = 2 ml formulated per kg seed, 2 days after sowing
# [2] = 2 ml formulated per kg seed, 3 days after sowing
# [3] = 2 ml formulated per kg seed, 7 days after sowing
# [4] = 2 ml formulated per kg seed, 10 days after sowing
# [5] = 2 ml formulated per kg seed, 14 days after sowing
# [6] = 4 ml formulated per kg seed, 2 days after sowing
# [7] = 4 ml formulated per kg seed, 3 days after sowing
# [8] = 4 ml formulated per kg seed, 7 days after sowing
# [9] = 4 ml formulated per kg seed, 10 days after sowing
# [10] = 4 ml formulated per kg seed, 14 days after sowing
# [11] = 8 ml formulated per kg seed, 2 days after sowing
# [12] = 8 ml formulated per kg seed, 3 days after sowing
# [13] = 8 ml formulated per kg seed, 7 days after sowing
# [14] = 8 ml formulated per kg seed, 10 days after sowing
# [15] = 8 ml formulated per kg seed, 14 days after sowing
# [16] = 12 ml formulated per kg seed, 2 days after sowing
# [17] = 12 ml formulated per kg seed, 3 days after sowing
# [18] = 12 ml formulated per kg seed, 7 days after sowing
# [19] = 12 ml formulated per kg seed, 10 days after sowing
# [20] = 12 ml formulated per kg seed, 14 days after sowing
# [21] = 3.8 ml formulated per kg seed, 2 days after sowing
# [22] = 3.8 ml formulated per kg seed, 3 days after sowing
# [23] = 3.8 ml formulated per kg seed, 7 days after sowing
# [24] = 3.8 ml formulated per kg seed, 10 days after sowing
# [25] = 3.8 ml formulated per kg seed, 14 days after sowing
# [26] = 7.5 ml formulated per kg seed, 2 days after sowing
# [27] = 7.5 ml formulated per kg seed, 3 days after sowing
# [28] = 7.5 ml formulated per kg seed, 7 days after sowing
# [29] = 7.5 ml formulated per kg seed, 10 days after sowing
# [30] = 7.5 ml formulated per kg seed, 14 days after sowing
# [31] = 11 ml formulated per kg seed, 2 days after sowing
# [32] = 11 ml formulated per kg seed, 3 days after sowing
# [33] = 11 ml formulated per kg seed, 7 days after sowing
# [34] = 11 ml formulated per kg seed, 10 days after sowing
# [35] = 11 ml formulated per kg seed, 14 days after sowing
# [36] = 15 ml formulated per kg seed, 2 days after sowing
# [37] = 15 ml formulated per kg seed, 3 days after sowing
# [38] = 15 ml formulated per kg seed, 7 days after sowing
# [39] = 15 ml formulated per kg seed, 10 days after sowing
# [40] = 15 ml formulated per kg seed, 14 days after sowing
smiles,measurement,setting,value
O=[N+]([O-])NC1=NCCN1Cc1ccc(Cl)nc1 [imidacloprid],number of utilizable plants after 14 days,2 ml formulated per kg seed,2.5
same,percentage of damaged seeds after 14 days,2 ml formulated per kg seed,86%
same,Mean number of damaged seeds per pot,[1],2.8
same,Mean number of dead slugs per pot,[1],0
same,Mean number fecal pellets per pot,[2],33
same,Mean number of damaged seeds per pot,[2],10.3
same,Mean number of dead slugs per pot,[2],0
same,Mean number of plants present per pot,[2],3.8
same,Mean number fecal pellets per pot,[3],118
same,Mean number of damaged seeds per pot,[3],33.0
same,Mean number of dead slugs per pot,[3],0
same,Mean number of plants present per pot,[3],2.8
same,Mean number fecal pellets per pot,[4],109
same,Mean number of damaged seeds per pot,[4],33.5
same,Mean number of dead slugs per pot,[4],0.3
same,Mean number of plants present per pot,[4],4.5
same,Mean number fecal pellets per pot,[5],116
same,Mean number of damaged seeds per pot,[5],34.3
same,Mean number of dead slugs per pot,[5],0.5
same,Mean number of plants present per pot,[5],3.3
same,number of utilizable plants after 14 days,4 ml formulated per kg seed,0.8
same,percentage of damaged seeds after 14 days,4 ml formulated per kg seed,81%
same,Mean number of damaged seeds per pot,[6],1.0
same,Mean number of dead slugs per pot,[6],0
same,Mean number fecal pellets per pot,[7],21
same,Mean number of damaged seeds per pot,[7],7.3
same,Mean number of dead slugs per pot,[7],0.3
same,Mean number of plants present per pot,[7],2.3
same,Mean number fecal pellets per pot,[8],108
same,Mean number of damaged seeds per pot,[8],32.8
same,Mean number of dead slugs per pot,[8],0.3
same,Mean number of plants present per pot,[8],1.3
same,Mean number fecal pellets per pot,[9],118
same,Mean number of damaged seeds per pot,[9],31.5
same,Mean number of dead slugs per pot,[9],0.3
same,Mean number of plants present per pot,[9],4.0
same,Mean number fecal pellets per pot,[10],126
same,Mean number of damaged seeds per pot,[10],32.3
same,Mean number of dead slugs per pot,[10],0.3
same,Mean number of plants present per pot,[10],3.5
same,number of utilizable plants after 14 days,8 ml formulated per kg seed,7.3
same,percentage of damaged seeds after 14 days,8 ml formulated per kg seed,59%
same,Mean number of damaged seeds per pot,[11],1.3
same,Mean number of dead slugs per pot,[11],0
same,Mean number fecal pellets per pot,[12],11
same,Mean number of damaged seeds per pot,[12],4.5
same,Mean number of dead slugs per pot,[12],0
same,Mean number of plants present per pot,[12],13.8
same,Mean number fecal pellets per pot,[13],48
same,Mean number of damaged seeds per pot,[13],23.8
same,Mean number of dead slugs per pot,[13],0
same,Mean number of plants present per pot,[13],9.0
same,Mean number fecal pellets per pot,[14],65
same,Mean number of damaged seeds per pot,[14],23.5
same,Mean number of dead slugs per pot,[14],0.3
same,Mean number of plants present per pot,[14],9.5
same,Mean number fecal pellets per pot,[15],75
same,Mean number of damaged seeds per pot,[15],23.8
same,Mean number of dead slugs per pot,[15],0.5
same,Mean number of plants present per pot,[15],10.5
same,number of utilizable plants after 14 days,12 ml formulated per kg seed,14.3
same,percentage of damaged seeds after 14 days,12 ml formulated per kg seed,22%
same,Mean number of damaged seeds per pot,[16],0.0
same,Mean number of dead slugs per pot,[16],0
same,Mean number fecal pellets per pot,[17],9
same,Mean number of damaged seeds per pot,[17],4.3
same,Mean number of dead slugs per pot,[17],1.5
same,Mean number of plants present per pot,[17],11.8
same,Mean number fecal pellets per pot,[18],26
same,Mean number of damaged seeds per pot,[18],11.5
same,Mean number of dead slugs per pot,[18],1.5
same,Mean number of plants present per pot,[18],16.3
same,Mean number fecal pellets per pot,[19],35
same,Mean number of damaged seeds per pot,[19],7.8
same,Mean number of dead slugs per pot,[19],1.5
same,Mean number of plants present per pot,[19],19.0
same,Mean number fecal pellets per pot,[20],38
same,Mean number of damaged seeds per pot,[20],8.8
same,Mean number of dead slugs per pot,[20],1.5
same,Mean number of plants present per pot,[20],20
same,damaged seeds relative to untreated seed,"Example 1, 2 ml/kg",no controlling effect
same,damaged seeds relative to untreated seed,"Example 1, 4 ml/kg",controlling effect only after 2 and 3 days
same,damaged seeds relative to untreated seed,"Example 1, 8 ml/kg, after 3, 7 and 14 days",significant controlling effect
same,damaged seeds relative to the untreated pots,"Example 1, 12 ml per kg of seed, at each observation",significantly less damaged seeds
same,fecal pellets relative to the untreated seed,"Example 1, 12 ml per kg of seed, each observation",significantly less fecal pellets
same,dead slugs relative to the untreated seed,"Example 1, 12 ml/kg, 3 and 7 days after the start",significantly more dead slugs
same,plants present relative to the untreated seed,"Example 1, 12 ml/kg, at each observation",significantly more plants present
same,slug controlling effect (conclusion),"Example 1, dosage of 12 ml per kg of seed",good slug controlling agent
CC1OC(C)OC(C)OC(C)O1 (stereo not shown) [metaldehyde],number of utilizable plants after 14 days,3.8 ml formulated per kg seed,32.3
same,percentage of damaged seeds after 14 days,3.8 ml formulated per kg seed,7%
same,Mean number of damaged seeds per pot,[21],0
same,Mean number of dead slugs per pot,[21],0
same,Mean number fecal pellets per pot,[22],1
same,Mean number of damaged seeds per pot,[22],0.3
same,Mean number of dead slugs per pot,[22],0
same,Mean number of plants present per pot,[22],9.3
same,Mean number fecal pellets per pot,[23],4
same,Mean number of damaged seeds per pot,[23],2.5
same,Mean number of dead slugs per pot,[23],0
same,Mean number of plants present per pot,[23],34.8
same,Mean number fecal pellets per pot,[24],5
same,Mean number of damaged seeds per pot,[24],1.3
same,Mean number of dead slugs per pot,[24],0
same,Mean number of plants present per pot,[24],33.0
same,Mean number fecal pellets per pot,[25],31
same,Mean number of damaged seeds per pot,[25],2.8
same,Mean number of dead slugs per pot,[25],0.5
same,Mean number of plants present per pot,[25],34.0
same,number of utilizable plants after 14 days,7.5 ml formulated per kg seed,34.3
same,percentage of damaged seeds after 14 days,7.5 ml formulated per kg seed,6%
same,Mean number of damaged seeds per pot,[26],0
same,Mean number of dead slugs per pot,[26],0
same,Mean number fecal pellets per pot,[27],2
same,Mean number of damaged seeds per pot,[27],0
same,Mean number of dead slugs per pot,[27],0
same,Mean number of plants present per pot,[27],3.5
same,Mean number fecal pellets per pot,[28],4
same,Mean number of damaged seeds per pot,[28],3.5
same,Mean number of dead slugs per pot,[28],0.8
same,Mean number of plants present per pot,[28],34.3
same,Mean number fecal pellets per pot,[29],4
same,Mean number of damaged seeds per pot,[29],2.5
same,Mean number of dead slugs per pot,[29],1.0
same,Mean number of plants present per pot,[29],35.3
same,Mean number fecal pellets per pot,[30],6
same,Mean number of damaged seeds per pot,[30],2.5
same,Mean number of dead slugs per pot,[30],1.5
same,Mean number of plants present per pot,[30],35.0
same,number of utilizable plants after 14 days,11 ml formulated per kg seed,36.3
same,percentage of damaged seeds after 14 days,11 ml formulated per kg seed,1%
same,Mean number of damaged seeds per pot,[31],0
same,Mean number of dead slugs per pot,[31],0
same,Mean number fecal pellets per pot,[32],2
same,Mean number of damaged seeds per pot,[32],0
same,Mean number of dead slugs per pot,[32],0
same,Mean number of plants present per pot,[32],9.8
same,Mean number fecal pellets per pot,[33],2
same,Mean number of damaged seeds per pot,[33],1.0
same,Mean number of dead slugs per pot,[33],0.5
same,Mean number of plants present per pot,[33],34.0
same,Mean number fecal pellets per pot,[34],1
same,Mean number of damaged seeds per pot,[34],0.3
same,Mean number of dead slugs per pot,[34],0.5
same,Mean number of plants present per pot,[34],35.8
same,Mean number fecal pellets per pot,[35],3
same,Mean number of damaged seeds per pot,[35],0.3
same,Mean number of dead slugs per pot,[35],1.0
same,Mean number of plants present per pot,[35],36.5
same,number of utilizable plants after 14 days,15 ml formulated per kg seed,34.5
same,percentage of damaged seeds after 14 days,15 ml formulated per kg seed,0%
same,Mean number of damaged seeds per pot,[36],0.3
same,Mean number of dead slugs per pot,[36],0
same,Mean number fecal pellets per pot,[37],1
same,Mean number of damaged seeds per pot,[37],0
same,Mean number of dead slugs per pot,[37],0.3
same,Mean number of plants present per pot,[37],6.3
same,Mean number fecal pellets per pot,[38],3
same,Mean number of damaged seeds per pot,[38],0.8
same,Mean number of dead slugs per pot,[38],0.8
same,Mean number of plants present per pot,[38],35.0
same,Mean number fecal pellets per pot,[39],4
same,Mean number of damaged seeds per pot,[39],0
same,Mean number of dead slugs per pot,[39],0.8
same,Mean number of plants present per pot,[39],35.0
same,Mean number fecal pellets per pot,[40],5
same,Mean number of damaged seeds per pot,[40],0
same,Mean number of dead slugs per pot,[40],1.0
same,Mean number of plants present per pot,[40],35.3
same,damaged seeds relative to the control,"Example 1, 3.8, 7.5, 11 or 15 ml per kg of seed, all dosages",significantly less damaged seeds
same,plants present relative to untreated,"Example 1, all dosages, after 7 days",significantly more plants present
same,fecal pellets relative to the untreated seed,"Example 1, at each dosage and at each observation",significantly less fecal pellets
same,protection / slug controlling effect (conclusion),"Example 1, winter wheat seed treatment, dosages tested",excellent protection against slugs
